In brackets after ≈: the same amount, converted by molar mass. Like-named read-outs stand apart in the source and are kept apart here.
Legend:
[1] = Blood brain barrier penetration, brain perfusion (Assay 14); assay type: in vivo; conditions: rat brain perfusion, 50 μM, 1.5 minutes
Method: Assay 14. Blood Brain Barrier Penetration
A trace amount of ^14C-sucrose was added to each stock infusion solution (approx 0.01 μCi/mL) to act as Blood-Brain Barrier (BBB)-impermeable marker in order to assess the integrity of the BBB during each perfusion and to estimate the volume of the residual vascular space (RVS) in samples of brain tissue (ie: the volume of fluid remaining inside the lumen of blood vessels at the end of each perfusion).
The right common carotid artery was surgically exposed and cannulated for perfusion of the cerebral circulation. The right external carotid artery (which supplies tissues outside the skull) was then ligated distal to its bifurcation from the right common carotid artery so that all of the infusion solution would pass into the brain via the remaining right internal carotid artery. The heart was then exposed and transected immediately prior to the commencement of the infusion. […] The infusion cannula initially contained a 0.5 mL pre-wash of heparinised PBS (10 IU/ml) that acts to flush blood vessels and to prevent blood from clotting and blocking small vessels.
After 1.5 minutes, the infusion pump automatically stopped, the cannula was withdrawn from the carotid artery and a sample of the infusion solution (1-1.5 mL) was then collected from the tip of the infusion cannula. The brain was then dissected free and divided into 3 parts; the right hemisphere together with the right midbrain, the left hemisphere together with the left midbrain and the hindbrain (cerebellum, pons and brainstem). Only the right part of the brain was used for subsequent measurements because perfusion via the right internal carotid artery preferentially supplies the right hemisphere and right midbrain (the left hemisphere and hindbrain receive a variable collateral perfusion). The brain tissue samples from each animal were frozen at −30° C., homogenized and weighed aliquots analysed by LC-MS to give total brain concentration. The analysis was carried out using the Micromass Triple Quad instrument. The mobile phase consisted of an acetonitrile/water gradient (containing 0.05% Formic acid) and the column was a Phenomenex Luna CN.
Small aliquots from each brain tissue sample and the corresponding infusion solution were analysed by liquid scintillation counting to determine the level of ^14C-sucrose. The residual vascular space (RVS) in each brain tissue sample was calculated by dividing the measured concentration of sucrose in brain tissue (dpm/mg) by its concentration in the corresponding infusion solution (dpm/μL). This is the volume of fluid that remains inside blood vessels at the end of each perfusion. […]
A total of 5-6 brain perfusion experiments were performed for each of the test compounds and mean brain uptake ratios were calculated.

[2] = system: Neuronal cortical cells; assay: Assay for test compound cytoxicity, MTS (Assay 3(d)); assay type: cell-based, mouse; conditions: BL6J×129sv, mouse, 4 days
[3] = system: Neuronal cortical cells treated with Aβ1-42; assay: Assay for Aβ neurotoxicity and Aβ neuroprotection (Assay 3(c)); assay type: cell-based, mouse; conditions: 20 uM Aβ1-42, 4 days, MTS
[4] = Turbidimetric solubility measurements (Assay 13); assay type: physicochemical; conditions: kinetic from dmso stock, 1% DMSO, nephelometry
Method: Turbidimetric Solubility Measurements
The solubility estimate was measured at both pH 2.0 and pH 6.5. This is within the pH range that can be anticipated along the proximal gastrointestinal tract in humans.
The compounds were dissolved in DMSO to appropriate concentrations and then spiked into either 0.01M HCl (approx. pH=2.0) or pH 6.5 isotonic phosphate buffer, the final DMSO concentration being 1%. Samples were then analysed via Nephelometry to determine a solubility range. [as per D. Bevan and R. S. Lloyd, Anal. Chem. 2000, 72, 1781-1787].

[5] = system: APP2576 transgenic mouse; assay: Effect of administration of test compounds on Aβ deposits in transgenic animals (Assay 11); assay type: in vivo; parameters: concentration or dose not given beside the values; conditions: transgenic mouse brains; for Insoluble fraction. % change compared with control.: insoluble Aβ; for Soluble fraction. % change compared with control.: soluble Aβ
[6] = aqueous buffer, pH 6.5 isotonic phosphate buffer, read-out: Solubility pH 6.5
[7] = simulated gastric fluid, 0.01M HCl (approx. pH 2.0), read-out: Solubility (μg/mL) 0.01M HCl

| SMILES | Uptake Ratio [1] | Test Compound Cytoxicity 1 uM [2] | Test Compound Cytoxicity 10 uM [2] | % inhibition Abeta toxicity [3] | solubility [4, 6] | solubility [4, 7] | Insoluble fraction. % change compared with control. [5] | Soluble fraction. % change compared with control. [5] |
| --- | --- | --- | --- | --- | --- | --- | --- | --- |
| Cn1cnc(CCNC(=O)c2ccc3c(Cl)cc(Cl)c(O)c3n2)c1 [compound 1050, 5,7-dichloro-8-hydroxyquinoline-2-carboxylic acid [2-(1-methyl-1H-imidazol-4-yl)-ethyl]-amide] | >50% | 93 | 88 | 6% | 12.5 to 25 µg/mL (≈ 34.2 to 68.5 µM) | 25 to 50 µg/mL (≈ 68.5 to 137 µM) | – | – |
| CN(C)Cc1ccc2c(Cl)cc(Cl)c(O)c2n1.Cl [compound 1033, 5,7-Dichloro-2-dimethylaminomethyl-quinolin-8-ol hydrochloride] | >50% | 80 | 70 | 38% | 3.1 to 6.2 µg/mL | < 3.1 µg/mL | −29% | −37% |
| CCNCc1ccc2c(Cl)cc(Cl)c(O)c2n1.Cl [compound 1051, 5,7-dichloro-2-ethylaminomethyl-quinolin-8-ol hydrochloride] | >50% | 87 | 56 | 23% | < 3.1 µg/mL | < 3.1 µg/mL | −21% | negligible |
| O=C(NCCc1c[nH]cn1)c1ccc2c(Cl)cc(Cl)c(O)c2n1 [compound 1038, 5,7-Dichloro-8-hydroxyquinoline-2-carboxylic acid [2-(1H-imidazol-4-yl)-ethyl]-amide] | >50% | 93 | 83 | 19% | 12.5 to 25 µg/mL (≈ 35.6 to 71.2 µM) | 3.1 to 6.2 µg/mL (≈ 8.83 to 17.7 µM) | −37% | negligible |

From patent US9302993B2, “8-hydroxy quinoline derivatives” (PRANA BIOTECHNOLOGY LIMITED, priority 2002, dated 2016)
